Species on record: Rattus norvegicus
Assay: DrugMatrix - Regimen: Daily Repeat
Type: toxicity, organism-based, Sprague-Dawley
Design: regimen Daily Repeat, gender Male, age 6-8 weeks
Details: in vivo, po, route oral GAVAGE, vehicle .5 % CMC; for CREATINE PHOSPHOKINASE / CREATININE / GLUCOSE / LACTATE DEHYDROGENASE / LIPASE / PHOSPHORUS / POTASSIUM / SODIUM / TOTAL BILIRUBIN / TOTAL PROTEIN / URIC ACID / ALANINE AMINOTRANSFERASE / ALBUMIN / ALKALINE PHOSPHATASE / ASPARTATE AMINOTRANSFERASE / BLOOD UREA NITROGEN / CHLORIDE / CHOLESTEROL: tissue Plasma; for ABSOLUTE BASOPHIL / ABSOLUTE EOSINOPHIL / ABSOLUTE LYMPHOCYTE / ABSOLUTE MONOCYTE / ABSOLUTE SEGMENTED NEUTROPHIL / BASOPHIL / EOSINOPHIL / ERYTHROCYTE COUNT / HEMATOCRIT / HEMOGLOBIN / LEUKOCYTE COUNT / LYMPHOCYTE / MEAN CORPUSCULAR HEMOGLOBIN / MEAN CORPUSCULAR HEMOGLOBIN CONCENTRATION / MEAN CORPUSCULAR VOLUME / MONOCYTE / NEUTROPHIL / PLATELET COUNT: tissue Blood
[1] = 0 mg/kg, 2184 h, dose level Control, time 91 day
[2] = 0 mg/kg, […], dose level Control, time 28 day
[3] = 0.0007 mg/kg, 120 h, dose level Low, time 5 day
[4] = 0.0007 mg/kg, 2184 h, dose level Low, time 91 day

In the case of Clc1cc2c(cc1Cl)Oc1cc(Cl)c(Cl)cc1O2 [2,3,7,8-TETRACHLORODIBENZO-P-DIOXIN], the “CREATINE PHOSPHOKINASE” value [1] was 91.22 u/L, the CREATININE [1] was 0.61 mg/dL and the GLUCOSE [1] was 142.33 mg/dL. The “LACTATE DEHYDROGENASE” value [1] was 81.67 u/L, the LIPASE [1] was 13 u/L and the PHOSPHORUS [1] was 7.54 mg/dL. The POTASSIUM [1] was 6.27 MEQ/L, the SODIUM [1] was 149.89 MEQ/L and the “TOTAL BILIRUBIN” value [1] was 0.19 mg/dL. The “TOTAL PROTEIN” value [1] was 7.12 G/DL, the “URIC ACID” value [1] was 0.97 mg/dL and the ABSOLUTE BASOPHIL [2] was 150 cells/µL. For the same molecule, the ABSOLUTE EOSINOPHIL [2] was 54 cells/µL, the ABSOLUTE LYMPHOCYTE [2] was 8890 cells/µL and the ABSOLUTE MONOCYTE [2] was 190 cells/µL. The ABSOLUTE SEGMENTED NEUTROPHIL [2] was 2250 cells/µL, the BASOPHIL [2] was 1.26% and the EOSINOPHIL [2] was 0.46%. The “ERYTHROCYTE COUNT” value [2] was 8.34 x10E6/uL, the HEMATOCRIT [2] was 48.66% and the HEMOGLOBIN [2] was 16.04 G/DL. For the same molecule, the “LEUKOCYTE COUNT” value [2] was 11.58 x10E3/uL, the LYMPHOCYTE [2] was 76.74% and the “MEAN CORPUSCULAR HEMOGLOBIN” value [2] was 19.2 pg. For the same molecule, the “MEAN CORPUSCULAR HEMOGLOBIN CONCENTRATION” value [2] was 32.92 G/DL, the “MEAN CORPUSCULAR VOLUME” value [2] was 58.32 fL and the MONOCYTE [2] was 1.76%. For the same molecule, the NEUTROPHIL [2] was 19.44%, the “PLATELET COUNT” value [2] was 1282.6 x10E3/uL and the “ALANINE AMINOTRANSFERASE” value [2] was 27 u/L. The ALBUMIN [2] was 3.68 G/DL, the “ALKALINE PHOSPHATASE” value [2] was 146.2 u/L and the “ASPARTATE AMINOTRANSFERASE” value [2] was 66.6 u/L. The “BLOOD UREA NITROGEN” value [2] was 12.4 mg/dL, the CHLORIDE [2] was 104.6 MEQ/L and the CHOLESTEROL [2] was 59.6 mg/dL. The “CREATINE PHOSPHOKINASE” value [2] was 121.8 u/L, the CREATININE [2] was 0.6 mg/dL and the GLUCOSE [2] was 143 mg/dL. The “LACTATE DEHYDROGENASE” value [2] was 87.8 u/L, the LIPASE [2] was 17.4 u/L and the PHOSPHORUS [2] was 8.68 mg/dL. The POTASSIUM [2] was 6.02 MEQ/L, the SODIUM [2] was 152.8 MEQ/L and the “TOTAL BILIRUBIN” value [2] was 0.26 mg/dL. For the same molecule, the “TOTAL PROTEIN” value [2] was 6.92 G/DL, the “URIC ACID” value [2] was 0.52 mg/dL and the ABSOLUTE BASOPHIL [3] was 72 cells/µL. The ABSOLUTE EOSINOPHIL [3] was 44 cells/µL, the ABSOLUTE LYMPHOCYTE [3] was 8990 cells/µL and the ABSOLUTE MONOCYTE [3] was 220 cells/µL. It also gave an ABSOLUTE SEGMENTED NEUTROPHIL [3] of 1360 cells/µL, a BASOPHIL [3] of 0.68% and an EOSINOPHIL [3] of 0.38%. The “ERYTHROCYTE COUNT” value [3] was 7.39 x10E6/uL, the HEMATOCRIT [3] was 46.1% and the HEMOGLOBIN [3] was 15.68 G/DL. For the same molecule, the “LEUKOCYTE COUNT” value [3] was 10.75 x10E3/uL, the LYMPHOCYTE [3] was 83.64% and the “MEAN CORPUSCULAR HEMOGLOBIN” value [3] was 21.26 pg. For the same molecule, the “MEAN CORPUSCULAR HEMOGLOBIN CONCENTRATION” value [3] was 34.02 G/DL, the “MEAN CORPUSCULAR VOLUME” value [3] was 62.42 fL and the MONOCYTE [3] was 2.06%. The NEUTROPHIL [3] was 12.68%, the “PLATELET COUNT” value [3] was 1506.2 x10E3/uL and the “ALANINE AMINOTRANSFERASE” value [3] was 30.8 u/L. For the same molecule, the ALBUMIN [3] was 3.64 G/DL, the “ALKALINE PHOSPHATASE” value [3] was 238.8 u/L and the “ASPARTATE AMINOTRANSFERASE” value [3] was 76.4 u/L. For the same molecule, the “BLOOD UREA NITROGEN” value [3] was 11.4 mg/dL, the CHLORIDE [3] was 107.8 MEQ/L and the CHOLESTEROL [3] was 61.4 mg/dL. For the same molecule, the “CREATINE PHOSPHOKINASE” value [3] was 181.6 u/L, the CREATININE [3] was 0.5 mg/dL and the GLUCOSE [3] was 115 mg/dL. For the same molecule, the “LACTATE DEHYDROGENASE” value [3] was 69.6 u/L, the LIPASE [3] was 31.8 u/L and the PHOSPHORUS [3] was 11.8 mg/dL. The POTASSIUM [3] was 6.66 MEQ/L, the SODIUM [3] was 150.8 MEQ/L and the “TOTAL BILIRUBIN” value [3] was 0.14 mg/dL. The “TOTAL PROTEIN” value [3] was 6.08 G/DL, the “URIC ACID” value [3] was 0.72 mg/dL and the ABSOLUTE BASOPHIL [4] was 270 cells/µL. The ABSOLUTE EOSINOPHIL [4] was 140 cells/µL, the ABSOLUTE LYMPHOCYTE [4] was 10000 cells/µL and the ABSOLUTE MONOCYTE [4] was 280 cells/µL. It also gave an ABSOLUTE SEGMENTED NEUTROPHIL [4] of 2090 cells/µL and a BASOPHIL [4] of 2.13%.
